Assay results as given in paper PMC6413121, “Antiplasmodial and Cytotoxic Cytochalasins from an Endophytic Fungus, Nemania sp. UM10M, Isolated from a Diseased Torreya taxifolia Leaf” (Molecules, 2019).
Where two headings read alike, the source gives them in different places.

Key:
[1] = intraperitoneal, subcutaneous, or intravenous injections up to 100 mg/kg/day; cited from earlier work
[2] = tested on: P. falciparum D6 (chloroquine sensitive) strain; assay: microbe, parasite or virus in culture; type: cell-based, Plasmodium falciparum; settings: for IC50: Plasmodium falciparum; for Chloroquine-Sensitive (D6)-Strain S. I.: selectivity index = IC50 for cytotoxicity (Vero)/IC50 for antiplasmodial activity
[3] = tested on: P. falciparum W2 (chloroquine resistant) strain; assay: microbe, parasite or virus in culture; type: cell-based, Plasmodium falciparum; settings: for IC50: Plasmodium falciparum; for Chloroquine-Resistant (W2)-Strain S. I.: selectivity index = IC50 for cytotoxicity (Vero)/IC50 for antiplasmodial activity
[4] = tested on: Vero cells (mammalian kidney fibroblasts); assay: in vitro; type: cell-based; settings: highest concentration tested […]
[5] = tested on: P. berghei (NK-65 strain); assay: In vivo antimalarial assay in mice infected with P. berghei; design: species or system mice (Swiss Webster); settings: for Day of Death (post infection): one value per animal; for % Parasitemia Suppression Day 5 / % Parasitemia Suppression Day 7: vehicle control = 100% parasitemia, < 80% non-significant
Description: The protocol for in vivo antimalarial evaluation was approved by the University of Mississippi Institutional Animal Care and Use Committee (IACUC). The in vivo antimalarial activity was determined in mice infected with P. berghei (NK-65 strain). Male mice (Swiss Webster strain) weighing 18-20 g were intraperitoneally inoculated with 2 × 10^7 parasitized red blood cells obtained from a highly infected donor mouse. Mice were divided into different groups with five mice in each group. Compound stocks were prepared in DMSO and administered orally to the mice through gavage two hours after the infection (day 0). The animals were treated once daily for consecutive days (day 0 to 2) and were closely observed for at least 2 h after every dose for any apparent signs of toxicity. Blood smears were prepared on different days starting from 5 days post infection (through 28 days) by clipping the tail end, stained with Giemsa, and the slides were observed under microscope for determination of parasitemia. Mice without parasitemia through day 28 postinfection were considered as cured. Also, suppression in development of parasitemia was computed by comparing the parasitemia in the control vehicle treated group and groups treated with compound. The mean survival time was also computed for control and treated groups. The results are presented as parasitemia suppression of day 5 post treatment, mean survival time of mice in each group, cure and survival graphs computed by Prism 6.0. (San Diego, CA, USA).

in vitro [6] = type: cell-based; settings: African green monkey
[7] = tested on: lettuce (Lactuca sativa cv. L., Iceberg); assay: In vitro phytotoxicity assay, lettuce; settings: 1 mg/mL; 10% acetone; scale of 0 to 5, 0 = no effect, 5 = no growth
Description: (§1) Herbicidal or phytotoxic activity of the extract and compounds was performed according to the published procedure using bentgrass (Agrostis stolonifera) and lettuce (Lactuca sativa cv. L., Iceberg), in 24-well plates. Phytotoxicity was ranked visually. The ranking of phytotoxic activity was based on a scale of 0 to 5 with 0 showing no effect and 5 no growth.

[8] = tested on: bentgrass (Agrostis stolonifera); assay: In vitro phytotoxicity assay, bentgrass; settings: 1 mg/mL; 10% acetone; scale of 0 to 5, 0 = no effect, 5 = no growth
Description: as §1

in vitro [9] = type: cell-based, human; settings: human, concentration causing 50% growth inhibition
Description: (§2) In vitro cytotoxicity was determined against a panel of mammalian cells that included kidney fibroblast (Vero), kidney epithelial (LLC-PK11), malignant melanoma (SK-MEL), oral epidermal carcinoma (KB), breast ductal carcinoma (BT-549), and ovary carcinoma (SK-OV-3) cells Doxorubicin was used as a positive control.

in vitro [10] = type: cell-based, pig; settings: pig; concentration causing 50% growth inhibition; read-out: Cytotoxic activity IC50, LLC-PK11
Description: as §2

[11] = tested on: BT-549 (human breast carcinoma, ductal); assay: in vitro; type: cell-based; settings: concentration causing 50% growth inhibition; read-out: Cytotoxic activity IC50, BT-549
Description: as §2

[12] = tested on: KB (human epidermal carcinoma); assay: in vitro; type: cell-based; settings: concentration causing 50% growth inhibition; read-out: Cytotoxic activity IC50, KB
Description: as §2

[13] = tested on: SK-MEL (human malignant melanoma); assay: in vitro; type: cell-based; settings: concentration causing 50% growth inhibition; read-out: Cytotoxic activity IC50, SK-MEL
Description: as §2

[14] = tested on: SK-OV-3 (human ovary carcinoma); assay: in vitro; type: cell-based; settings: concentration causing 50% growth inhibition; read-out: Cytotoxic activity IC50, SK-OV-3
Description: as §2

[15] = tested on: LLC-PK11 (pig kidney epithelial); assay: in vitro; type: cell-based; settings: concentration causing 50% growth inhibition; read-out: Cytotoxic activity IC50, LLC-PK11
Description: as §2

[16] = W2, read-out: Chloroquine-Resistant (W2)-Strain IC50
[17] = W2, read-out: Chloroquine-Resistant (W2)-Strain IC50 (ng/mL)
[18] = PO, 100 mg/kg × 3 days, P. berghei
[19] = P. falciparum D6, read-out: Chloroquine-Sensitive (D6)-Strain IC50
[20] = P. falciparum D6, read-out: Chloroquine-Sensitive (D6)-Strain IC50 (ng/mL)
[21] = highest concentration tested […], read-out: Cytotoxicity to Vero Cells IC50
[22] = read-out: Cytotoxicity to Vero cells
[23] = read-out: Cytotoxic activity IC50, BT-549
[24] = read-out: Cytotoxic activity IC50, KB
[25] = read-out: Cytotoxic activity IC50, SK-MEL
[26] = read-out: Cytotoxic activity IC50, SK-OV-3

In the case of `C[C@H]1C/C=C/[C@H]2[C@@H]3O[C@]3(C)[C@@H](C)[C@H]3[C@H](Cc4ccccc4)NC(=O)[C@]32OC(=O)O/C=C/[C@@](C)(O)C1=O` [Cytochalasin E], the “Toxicity in animal models at therapeutic doses” value (“Toxicity in animal models” for short) [1] is given as “no toxicity”.

In the case of `CCN(CC)CCCC(C)Nc1ccnc2cc(Cl)ccc12` (stereo not drawn) [Chloroquine, reference compound], the IC50 ([2]; D6, read-out: Chloroquine-Sensitive (D6)-Strain IC50) is reported as 30 nM, the IC50 ([2]; D6, read-out: Chloroquine-Sensitive (D6)-Strain IC50 (ng/mL)) is reported as 16 ng/mL and the IC50 [3, 16] is reported as 310 nM. For the same compound, the IC50 [3, 17] was 160 ng/mL, the “Cytotoxicity to Vero Cells IC50” value [4] was “NC (not cytotoxic at the highest concentration tested (4760 ng/mL))” and the “Cure (mice without parasitemia till day 28 post-infection)” value [5, 18] was 2/5. For the same compound, the “MST (mean survival time)” value [5, 18] was 28 days, the “Survival (animals that survived day 28/total animals in group)” value [5, 18] was 5/5 and the “Day of Death (post infection)” value [5, 18] was 28/28/28/28/28. The “% Parasitemia Suppression Day 5” value [5, 18] was 100% and the “% Parasitemia Suppression Day 7” value [5, 18] was 100%.

In the case of `C=C1[C@@H](C)[C@H]2[C@H](Cc3ccccc3)NC(=O)[C@]23[C@H](OC(C)=O)/C=C/[C@@](C)(O)C(=O)[C@@H](C)C/C=C/[C@H]3[C@@H]1O` [Cytochalasin D], the “Toxicity in animal models” value [1] is given as “no toxicity”.

For `CC(=O)OC1C2OC2C(C)(O)C(=O)C(C)CC=CC2C(O)C(C)=C(C)C3C(Cc4ccccc4)NC(=O)C213` [Compound 1, (3S,4R,7S,8S,9R,16S,18R,19R,20S,21S)-19,20-epoxycytochalasin C], the IC50 [2, 19] was 70 nM, the IC50 [2, 20] was 37 ng/mL and the “Chloroquine-Sensitive (D6)-Strain S. I.” value [2] was greater than 128.6. The IC50 [3, 16] was 50 nM, the IC50 [3, 17] was 28 ng/mL and the “Chloroquine-Resistant (W2)-Strain S. I.” value [3] was greater than 170. The IC50 (in vitro [6]; [21]) was greater than 4.76 µg/mL, the IC50 (in vitro [6]; [22]) was greater than 4.76 µg/mL and the “Phytotoxic activity, Lettuce (ranking)” value [7] was 3. The “Phytotoxic activity, Bentgrass (ranking)” value [8] was 2, the IC50 (in vitro [9]; [23]) was greater than 10000 nM and the IC50 (in vitro [9]; [24]) was greater than 10000 nM. For the same compound, the IC50 (in vitro [9]; [25]) was 8020 nM, the IC50 (in vitro [9]; [26]) was greater than 10000 nM and the IC50 (in vitro [10]) was greater than 10000 nM. The “MST (mean survival time)” value [5, 18] was 5.2 days, the “Survival (animals that survived day 28/total animals in group)” value [5, 18] was 0/5 and the “Day of Death (post infection)” value [5, 18] was 17/5/3/1/0. The “% Parasitemia Suppression Day 5” value [5, 18] was 33.9%, the “% Parasitemia Suppression Day 7” value [5, 18] was 71.4% and the “Animals that died due to drug induced toxicity” value ([5]; oral, 100 mg/kg/day for 3 days) was “Three out of 5”.

`COc1cccc2c1C(=O)c1c(O)c3c(c(O)c1C2=O)C[C@@](O)(C(=O)CO)C[C@@H]3O[C@H]1C[C@H](N)[C@H](O)[C@H](C)O1` [Doxorubicin, reference compound] gave an IC50 [11] of 1830 nM, an IC50 [12] of 2120 nM and an IC50 [13] of 1290 nM. The IC50 [14] was 1470 nM and the IC50 [15] was 1280 nM.

For `C=C1[C@@H](C)[C@H]2[C@H](Cc3ccccc3)NC(=O)[C@]23OC(=O)/C=C/[C@H](O)CCC[C@@H](C)C/C=C/[C@H]3[C@@H]1O` [Cytochalasin B], the “Toxicity in animal models” value [1] is listed as “no toxicity”.

For `CC(=O)OC1C2OC2C(C)C(=O)C(C)CC=CC2C(O)C(C)=C(C)C3C(Cc4ccccc4)NC(=O)C213` [Compound 3, (3S,4R,7S,8S,9R,16(S),18S,19S,20R,21S)-18-deoxy-19,20-epoxycytochalasin C], the IC50 [2, 19] was 560 nM, the IC50 [2, 20] was 280 ng/mL and the “Chloroquine-Sensitive (D6)-Strain S. I.” value [2] was greater than 17. For the same compound, the IC50 [3, 16] was 190 nM, the IC50 [3, 17] was 100 ng/mL and the “Chloroquine-Resistant (W2)-Strain S. I.” value [3] was greater than 47.6. The IC50 (in vitro [6]; [21]) was greater than 4.76 µg/mL, the “Phytotoxic activity, Lettuce (ranking)” value [7] was 3 and the “Phytotoxic activity, Bentgrass (ranking)” value [8] was 4. The IC50 (in vitro [9]; [23]) was 6890 nM, the IC50 (in vitro [9]; [24]) was greater than 10000 nM and the IC50 (in vitro [9]; [25]) was greater than 10000 nM. For the same compound, the IC50 (in vitro [9]; [26]) was greater than 10000 nM and the IC50 (in vitro [10]) was greater than 10000 nM.

With `C[C@@H]1CC[C@H]2[C@@H](C)C(=O)O[C@@H]3O[C@@]4(C)CC[C@@H]1[C@]32OO4` [Artemisinin, reference compound] the “Chloroquine-Sensitive (D6)-Strain S. I.” value [2] was greater than 850, the “Chloroquine-Resistant (W2)-Strain S. I.” value [3] was greater than 1586.6 and the “Cytotoxicity to Vero Cells IC50” value [4] was “NC (not cytotoxic at the highest concentration tested (4760 ng/mL))”.

For `C=C1C(C)C2C(Cc3ccccc3)NC(=O)C23C(C=CCC(C)C(=O)C(C)(O)C2OC2C3OC(C)=O)C1O` [Compound 2, (3S,4R,5S,7S,8S,9R,16S,18R,19R,20S,21S)-19,20-epoxycytochalasin D], the IC50 [2, 19] was 40 nM, the IC50 [2, 20] was 22 ng/mL and the “Chloroquine-Sensitive (D6)-Strain S. I.” value [2] was greater than 216.3. For the same compound, the IC50 [3, 16] was 40 nM, the IC50 [3, 17] was 20 ng/mL and the “Chloroquine-Resistant (W2)-Strain S. I.” value [3] was greater than 238. For the same compound, the IC50 (in vitro [6]; [21]) was greater than 4.76 µg/mL, the IC50 (in vitro [6]; [22]) was greater than 4.76 µg/mL and the “Phytotoxic activity, Lettuce (ranking)” value [7] was 3. For the same compound, the “Phytotoxic activity, Bentgrass (ranking)” value [8] was 3, the IC50 (in vitro [9]; [23]) was 7840 nM and the IC50 (in vitro [9]; [24]) was greater than 10000 nM. The IC50 (in vitro [9]; [25]) was greater than 10000 nM, the IC50 (in vitro [9]; [26]) was greater than 10000 nM and the IC50 (in vitro [10]) was 8400 nM.
